Assay results reported in patent US20240409585A1, “MACROCYCLIC IMMUNOMODULATORS” (priority 2021, published 2024).
Bridge positions count the residues as written; N and C are the ends. Square brackets hold non-standard residues; d marks the D form. Peptide text beside a SMILES is read from it. * marks the point of attachment. ξ: configuration not given here. Phe(3-allyloxy) = C=CCOc1cccc(C[C@H](N)C(=O)O)c1; Phe(4-COOH) = N[C@@H](Cc1ccc(C(=O)O)cc1)C(=O)O; Phe(3,4-F2) = N[C@@H](Cc1ccc(F)c(F)c1)C(=O)O; Bip = N[C@@H](Cc1ccc(-c2ccccc2)cc1)C(=O)O; Phe(3-CN) = N#Cc1cccc(C[C@H](N)C(=O)O)c1; Phe(3-OMe) = COc1cccc(C[C@H](N)C(=O)O)c1; Phe(3-Me) = Cc1cccc(C[C@H](N)C(=O)O)c1; Bta = N[C@@H](Cc1csc2ccccc12)C(=O)O; 4Pal = N[C@@H](Cc1ccncc1)C(=O)O; Cha = N[C@@H](CC1CCCCC1)C(=O)O; Cit = NC(=O)NCCC[C@H](N)C(=O)O; dPhg = N[C@@H](C(=O)O)c1ccccc1; Thr(3ξ) = CC(O)[C@H](N)C(=O)O; Pip = O=C(O)[C@@H]1CCCCN1; Carboxymethyl = O=C(O)C*; NMeA = CN[C@@H](C)C(=O)O; Orn = NCCC[C@H](N)C(=O)O; Dab = NCC[C@H](N)C(=O)O; Dap = NC[C@H](N)C(=O)O

What follows are compounds tested against T1, PE-labeled human PD-L1-Ig binding to Jurkat cell line over-expressing human PD-1 (Jurkat-PD-1) (Homo sapiens, UniProt Q15116) (assay: Jurkat-PD-1 Cell Binding High-Content Screening Assay (CBA): Method 1). Details: Jurkat-hPD-1 cells, PE-labeled PD-L1-Ig 20 nM final; read-out: Jurkat HPDL1 PD1 IC50 (uM) (Method 1).
T1 construct: expressed in transfected cells; host or cells: Jurkat
T1 sequence (Q15116 25-288): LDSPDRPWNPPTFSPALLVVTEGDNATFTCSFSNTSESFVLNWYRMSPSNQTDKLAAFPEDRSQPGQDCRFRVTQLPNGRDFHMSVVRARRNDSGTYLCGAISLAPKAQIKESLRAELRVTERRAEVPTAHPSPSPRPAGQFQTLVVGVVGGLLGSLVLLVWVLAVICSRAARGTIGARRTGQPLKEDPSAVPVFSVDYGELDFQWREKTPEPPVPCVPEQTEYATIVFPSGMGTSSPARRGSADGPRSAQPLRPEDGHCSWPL
`CC(C)C[C@@H]1NC(=O)[C@H](CCN)NC(=O)[C@@H](CC(C)C)NC(=O)[C@H](C)N(C)C(=O)[C@H](CCCNC(N)=O)NC(=O)[C@H](Cc2ccc(-c3ccccc3)cc2)NC(=O)[C@H](C(C)C)NC(=O)[C@H](Cc2c[nH]c3ccccc23)NC(=O)[C@H](CC(=O)O)NC(=O)[C@H](Cc2ccncc2)NC(=O)[C@H](CN)NC(=O)CSC[C@@H](C(=O)N[C@@H](C)C(N)=O)NC(=O)[C@H]([C@@H](C)O)NC(=O)[C@H](C(C)C)NC1=O` [Compound 1545] ({CH2CO}-[Dap][4Pal]DWV[Bip][Cit][NMeA][dL][Dab]LVTCA-NH2; thioether N-14) was tested, and the IC50 was 0.04 µM.
Compound `CC(C)C[C@@H]1NC(=O)[C@H](CCCNC(=N)N)NC(=O)[C@@H](c2ccccc2)NC(=O)[C@H](C)N(C)C(=O)[C@H](CCCNC(=N)N)NC(=O)[C@H](Cc2ccc(-c3ccccc3)cc2)NC(=O)[C@H](C(C)C)NC(=O)[C@H](Cc2c[nH]c3ccccc23)NC(=O)[C@H](CC(=O)O)NC(=O)[C@H](Cc2ccc(O)cc2)NC(=O)[C@H](Cc2ccccc2)NC(=O)CSC[C@@H](C(=O)N[C@@H](C)C(N)=O)NC(=O)[C@H]([C@@H](C)O)NC(=O)[C@H](C(C)C)NC1=O` [Compound 1059] ({CH2CO}-FYDWV[Bip]R[NMeA][dPhg]RLVTCA-NH2; thioether N-14) has an IC50 of 0.21 µM.
Compound `CC(C)C[C@@H]1NC(=O)[C@H](CCN)NC(=O)[C@@H](CC(C)C)NC(=O)[C@H](C)N(C)C(=O)[C@H](CCCN)NC(=O)[C@H](Cc2ccc(-c3ccccc3)cc2)NC(=O)[C@H](C(C)C)NC(=O)[C@H](Cc2c[nH]c3ccccc23)NC(=O)[C@H](CC(=O)O)NC(=O)[C@H](Cc2ccc(O)cc2)NC(=O)[C@H](Cc2ccccc2)NC(=O)CSC[C@@H](C(=O)N[C@@H](C)C(N)=O)NC(=O)[C@H]([C@@H](C)O)NC(=O)[C@H](C(C)C)NC1=O` [Compound 1121] ({CH2CO}-FYDWV[Bip][Orn][NMeA][dL][Dab]LVTCA-NH2; thioether N-14) has an IC50 of 0.06 µM.
`Cc1cccc(C[C@@H]2NC(=O)[C@H](CC(=O)O)NC(=O)[C@H](Cc3ccc(OCC(=O)O)cc3)NC(=O)[C@H]([C@@H](C)O)NC(=O)CSC[C@@H](C(N)=O)NC(=O)[C@H](CCCN)NC(=O)[C@H](C(C)C)NC(=O)[C@H](CC3CCCCC3)NC(=O)[C@H](CC(N)=O)NC(=O)[C@@H](CC(C)C)NC(=O)[C@H](C)N(C)C(=O)[C@H](Cc3ccc(OCC(=O)O)cc3)NC(=O)[C@H](Cc3ccc(-c4ccccc4)cc3)NC(=O)[C@H](Cc3ccc(OCC(=O)O)cc3)NC2=O)c1` [Compound 1680] ({CH2CO}-TY(Carboxymethyl)D[Phe(3-Me)]Y(Carboxymethyl)[Bip]Y(Carboxymethyl)[NMeA][dL]N[Cha]V[Orn]C-NH2; thioether N-14) gave an IC50 of 0.17 µM.
`CC(C)C[C@@H]1NC(=O)[C@H](CCCNC(=N)N)NC(=O)[C@H](Cc2ccc(F)c(F)c2)NC(=O)[C@H](C)N(C)C(=O)[C@H](CCCNC(=N)N)NC(=O)[C@H](Cc2ccc(-c3ccccc3)cc2)NC(=O)[C@H](C(C)C)NC(=O)[C@H](Cc2c[nH]c3ccccc23)NC(=O)[C@H](CC(=O)O)NC(=O)[C@H](Cc2ccc(O)cc2)NC(=O)[C@H](Cc2ccccc2)NC(=O)CSC[C@@H](C(=O)NCC(N)=O)NC(=O)[C@H](CO)NC(=O)[C@H](C(C)C)NC1=O` [Compound 1015] ({CH2CO}-FYDWV[Bip]R[NMeA][Phe(3,4-F2)]RLVSCG-NH2; thioether N-14) was tested, and the IC50 was 0.16 µM.
`COc1cccc(C[C@@H]2NC(=O)[C@H](CC(=O)O)NC(=O)[C@H](Cc3cccc(C#N)c3)NC(=O)[C@H](Cc3ccncc3)NC(=O)CSC[C@@H](C(=O)N[C@@H](C)C(N)=O)NC(=O)[C@@H](CO)NC(=O)[C@H](C(C)C)NC(=O)[C@H](CC(C)C)NC(=O)[C@H](CC(N)=O)NC(=O)[C@@H](C)NC(=O)[C@H](C)N(C)C(=O)[C@H](C(C)C)NC(=O)[C@H](Cc3ccc(-c4ccccc4)cc3)NC(=O)[C@@H](CC(C)C)NC2=O)c1` [Compound 1462] ({CH2CO}-[4Pal][Phe(3-CN)]D[Phe(3-OMe)][dL][Bip]V[NMeA][dA]NLV[dS]CA-NH2; thioether N-14) was tested, and the IC50 was 0.01 µM.
Compound `CC(C)C[C@H]1NC(=O)[C@H](C)N(C)C(=O)[C@H](CCC(=O)O)NC(=O)[C@H](Cc2ccc(-c3ccccc3)cc2)NC(=O)[C@H](C(C)C)NC(=O)[C@H](Cc2c[nH]c3ccccc23)NC(=O)[C@H](CC(=O)O)NC(=O)[C@H](Cc2ccc(OCC(=O)O)cc2)NC(=O)[C@H](CC(N)=O)NC(=O)CSC[C@@H](C(=O)NCC(N)=O)NC(=O)[C@H](C(C)O)NC(=O)[C@H](C(C)C)NC(=O)[C@H](CC2CCCCC2)NC(=O)[C@H](CCN)NC1=O` (stereo partly drawn) [Compound 2085] ({CH2CO}-NY(Carboxymethyl)DWV[Bip]E[NMeA][dL][Dab][Cha]V[Thr(3ξ)]CG-NH2; thioether N-14) has an IC50 of 0.01 µM.
For `Cc1cccc(C[C@@H]2NC(=O)[C@H](CC(=O)O)NC(=O)[C@H](Cc3ccc(C(=O)O)cc3)NC(=O)[C@H](Cc3ccc(OCC(=O)O)cc3)NC(=O)CSC[C@@H](C(N)=O)NC(=O)[C@H]([C@@H](C)O)NC(=O)[C@H](C(C)C)NC(=O)[C@H](CC(C)C)NC(=O)[C@H](CC(N)=O)NC(=O)[C@@H](CC(C)C)NC(=O)[C@H](C)N(C)C(=O)[C@H](C(C)C)NC(=O)[C@H](Cc3ccc(-c4ccccc4)cc3)NC(=O)[C@H](CC(C)C)NC2=O)c1` [Compound 1682] ({CH2CO}-Y(Carboxymethyl)[Phe(4-COOH)]D[Phe(3-Me)]L[Bip]V[NMeA][dL]NLVTC-NH2; thioether N-14), the IC50 was 0.09 µM.
In the case of `C=CCOc1cccc(C[C@@H]2NC(=O)[C@H](Cc3ccccc3)NC(=O)CSC[C@@H](C(=O)N[C@@H](C)C(N)=O)NC(=O)[C@H](CO)NC(=O)[C@H](C(C)C)NC(=O)[C@H](CC(C)C)NC(=O)[C@H](CC(N)=O)NC(=O)[C@@H](C)NC(=O)[C@H](C)N(C)C(=O)[C@H](C(C)C)NC(=O)[C@H](Cc3ccc(-c4ccccc4)cc3)NC(=O)[C@H](CC(C)C)NC(=O)[C@H](Cc3c[nH]c4ccccc34)NC(=O)[C@H](CC(=O)O)NC2=O)c1` [Compound 1772] ({CH2CO}-F[Phe(3-allyloxy)]DWL[Bip]V[NMeA][dA]NLVSCA-NH2; thioether N-14), the IC50 is reported as 0.04 µM.
For `COc1cccc(C[C@@H]2NC(=O)[C@H](CC(N)=O)NC(=O)CSC[C@@H](C(=O)N[C@@H](C)C(N)=O)NC(=O)[C@H]([C@@H](C)O)NC(=O)[C@H](C(C)C)NC(=O)[C@H](CC(C)C)NC(=O)[C@H](CCN)NC(=O)[C@@H](CC(C)C)NC(=O)[C@H](C)N(C)C(=O)[C@H](CCCNC(N)=O)NC(=O)[C@H](Cc3ccc(-c4ccccc4)cc3)NC(=O)[C@H](C(C)C)NC(=O)[C@H](Cc3c[nH]c4ccccc34)NC(=O)[C@H](CC(=O)O)NC2=O)c1` [Compound 1313] ({CH2CO}-N[Phe(3-OMe)]DWV[Bip][Cit][NMeA][dL][Dab]LVTCA-NH2; thioether N-14), the IC50 was 0.04 µM.
For `CC(C)C[C@@H]1NC(=O)[C@H](Cc2c[nH]c3ccccc23)NC(=O)[C@H](CC(=O)O)NC(=O)[C@H](Cc2ccc(O)cc2)NC(=O)[C@H](Cc2ccccc2)NC(=O)CSC[C@@H](C(=O)NCC(N)=O)NC(=O)[C@H](CO)NC(=O)[C@H](C(C)C)NC(=O)[C@H](CC(C)C)NC(=O)[C@H](CC(N)=O)NC(=O)[C@@H](CO)NC(=O)[C@H](C)N(C)C(=O)[C@H](C(C)C)NC(=O)[C@H](Cc2ccc(-c3ccccc3)cc2)NC1=O` [Compound 1819] ({CH2CO}-FYDWL[Bip]V[NMeA][dS]NLVSCG-NH2; thioether N-14), the IC50 was 0.43 µM.
`CC(C)C[C@H]1NC(=O)[C@H](C)N(C)C(=O)[C@H](CCCNC(N)=O)NC(=O)[C@H](Cc2ccc(-c3ccccc3)cc2)NC(=O)[C@H](C(C)C)NC(=O)[C@H](Cc2c[nH]c3ccccc23)NC(=O)[C@H](CC(=O)O)NC(=O)[C@H](Cc2ccc(O)cc2)NC(=O)[C@H](CN)NC(=O)CSC[C@@H](C(=O)N[C@@H](C)C(N)=O)NC(=O)[C@H]([C@@H](C)O)NC(=O)[C@H](C(C)C)NC(=O)[C@H](CC2CCCCC2)NC(=O)[C@H](CCCNC(=N)N)NC1=O` [Compound 1503] ({CH2CO}-[Dap]YDWV[Bip][Cit][NMeA][dL]R[Cha]VTCA-NH2; thioether N-14) gave an IC50 of 0.01 µM.
`CC(C)C[C@@H]1NC(=O)[C@H](CCN)NC(=O)[C@@H](CC(C)C)NC(=O)[C@@H]2CCCCN2C(=O)[C@H](Cc2cnc[nH]2)NC(=O)[C@H](Cc2ccc(-c3ccccc3)cc2)NC(=O)[C@H](C(C)C)NC(=O)[C@H](Cc2c[nH]c3ccccc23)NC(=O)[C@H](CC(=O)O)NC(=O)[C@H](Cc2ccc(O)cc2)NC(=O)[C@H](CC(N)=O)NC(=O)CSC[C@@H](C(=O)N[C@@H](C)C(N)=O)NC(=O)[C@H]([C@@H](C)O)NC(=O)[C@H](C(C)C)NC1=O` [Compound 1381] ({CH2CO}-NYDWV[Bip]H[Pip][dL][Dab]LVTCA-NH2; thioether N-14) gave an IC50 of 0.03 µM.
`COc1cccc(C[C@@H]2NC(=O)[C@H](CC(=O)O)NC(=O)[C@H](Cc3cccc(C)c3)NC(=O)[C@H](CN)NC(=O)CSC[C@@H](C(=O)N[C@@H](C)C(N)=O)NC(=O)[C@@H](CO)NC(=O)[C@H](C(C)C)NC(=O)[C@H](CC(C)C)NC(=O)[C@H](CC(N)=O)NC(=O)[C@@H](C)NC(=O)[C@H](C)N(C)C(=O)[C@H](C(C)C)NC(=O)[C@H](Cc3ccc(-c4ccccc4)cc3)NC(=O)[C@@H](CC(C)C)NC2=O)c1` [Compound 1464] ({CH2CO}-[Dap][Phe(3-Me)]D[Phe(3-OMe)][dL][Bip]V[NMeA][dA]NLV[dS]CA-NH2; thioether N-14) showed an IC50 of 0.01 µM.
With `CC(C)C[C@@H]1NC(=O)[C@H](CCCNC(=N)N)NC(=O)[C@H](Cc2csc3ccccc23)NC(=O)[C@H](C)N(C)C(=O)[C@H](CCC(=O)O)NC(=O)[C@H](Cc2ccc(-c3ccccc3)cc2)NC(=O)[C@H](C(C)C)NC(=O)[C@H](Cc2c[nH]c3ccccc23)NC(=O)[C@H](CC(=O)O)NC(=O)[C@H](Cc2ccc(O)cc2)NC(=O)[C@H](Cc2ccccc2)NC(=O)CSC[C@@H](C(=O)N[C@@H](C)C(N)=O)NC(=O)[C@H]([C@@H](C)O)NC(=O)[C@H](C(C)C)NC1=O` [Compound 1133] ({CH2CO}-FYDWV[Bip]E[NMeA][Bta]RLVTCA-NH2; thioether N-14) the IC50 was 0.35 µM.
